The nature of data set [1]: In-vitro hydrolysis of Nabumetone beta-keto ester pro-prodrug and release of Nabumetone in model blood electrolyte solution at 37° C. As to conditions: model blood solutes solution. Type of data set: physicochemical.
Data set [2] is described as follows: Aqueous solubility of sodium beta-keto salt prodrug of Nabumetone (Example 13b). The format is physicochemical. The note with it: clear liquid after 3.5 h at 37° C. in 0.5 M NaOH; 200 μL diluted with 5.0 ml mobile phase. The method, then:
12.1 mg of the of ethyl-5-(6-methoxy-2-naphthyl)-beta-keto-pentanoate product prepared and purified as in Example 8 was mixed with 25 mL of a 0.5 M aqueous solution NaOH and homogenised on a vortex mixer. […] 15 minutes after preparation of the sample, the sample was transferred to an oil bath set at 37° C. with continuous gentle magnetic stirring, and kept there for 3.5 hours. Crystalline flakes remained in the sample at the end of the 3.5 hours heat-treatment, and the sample was thereafter centrifuged and the clear liquid above the sedimented crystals was analysed by HPLC as described above.
After storage around one hour at room temperature a fraction of the sample was then filtered twice through a 0.2 μm filter (Whatman, 0.2 μm PS) fitted to a syringe to give a clear solution. 200 μL of this filtered solution was transferred, in a tightly closed vessel, to an oil bath at 95° C. and kept at this temperature for about 5 hours to bring about quantitative decarboxylation of the labile, dissolved beta-keto carboxylic salt prodrug derivative of Nabumetone.
The heated sample was then mixed with 35 mL of mobile phase (see Example 1) whereby a few solid crystals (comprising Nabumetone) was seen to not dissolve. In order to assure a correct sampling for HPLC analysis, 5 mL of the 35 mL sample was filtered through a 0.2 μm filter, after the whole 35 mL sample had been pH adjusted to 4.21 by 300 μL 0.1 M HCl+100 μL 1 M HCl, to assure that the pH of the sample was close to the pH of the mobile phase itself (pH 4.30). The filtered solution was thereafter analysed by HPLC and found to contain 0.777 mg Nabumetone per liter. If recalculated to the corresponding concentration of nabumetone equivalents in the form of the beta-keto salt prodrug present in dissolved form in the filtered 200 μl sample that was subsequently heat-treated to form Nabumetone above, the obtained concentration corresponds to a Nabumetone concentration of 136.7 mg Nabumetone per liter in the clear aqueous solution, at room temperature, before the heat-treatment at 95° C.

Data set [3] in a line: Sustained release of acetophenone in vitro in pig blood at 37° C. As to conditions: for Benzoyl acetate ion concentration: pig blood pH 6.63.
A short description of data set [4]: Storage stability of beta-keto calcium salt prodrug of Nabumetone (17 days at 60° C., HPLC). The format is physicochemical. As to conditions: for Relative amount of calcium salt beta-keto prodrug/Nabumetone remaining after 17 days at 60° C.: dry calcium salt, oven at 60° C.
Data set [5] in a line: Storage stability of benzoylacetate salts and their corresponding acid (HPLC or gravimetric). The format is physicochemical. The note with it: for weight % of initial amount: Solid benzoylacetic acid, room T and ambient indoor humidity. The method, then:
A 0.2 M solution of ethyl benzoyl acetate (90%, Sigma Aldrich) in 0.5 M NaOH (aq) was prepared at room temperature and stirred for typically 5-24 hours, still at room temperature. After this time a major part of the ethyl benzoyl acetate had been transformed into dissolved sodium benzoyl acetate, as evidenced by monitoring the reaction by analysis of samples by reversed phase HPLC. Some acetophenone and remaining ethyl benzoyl acetate were typically present in the samples, but in minor amounts. The method employed a C8 column with an inner diameter of 150×4.6 mm and 5 micron particles. The mobile phase consisted of 400 ml deionized water+600 ml acetonitrile+0.196 g H3PO4 (85%)+2.760 g NaH2PO4*H2O. The flow rate was set to 1.0 mL/min and UV detection at 254 nm was employed for analysis of the compounds ethylbenzoylacetate (precursor), benzoylacetate (model prodrug) and acetophenone (model drug).
The storage stability of the sodium and calcium salts of benzoylacetate, and of benzoylacetic acid, in solid form, and in aqueous solutions, was investigated by storage of samples under various conditions (see Table 3a above) with regular HPLC- or gravimetric measurements of the samples from time to time. Samples denoted “neutralized” were prepared from a solution prepared as described in Example 1, which was neutralized with diluted HCl after performing the steps in Example 1.
From the data it can be concluded that the best storage stability at room temperature is obtained by storage in the form of the calcium salt.

For orientation: half-life means the time in which the quantity being followed falls by half.

Where “and” joins values, the source holds several entries; their conditions need not be identical. Equal entries are not always repeated.

As to `CCOC(=O)CC(=O)CCc1ccc2cc(OC)ccc2c1` [Pro-prodrug/beta-keto ester, ethyl-5-(6-methoxy-2-naphthyl)-beta-keto-pentanoate], the “Pro-prodrug/beta-keto ester (HPLC peak area)” value (shortened to “Pro-prodrug/beta-keto ester”) is on record as 1440 arbitrary units in data set [1] (Time 0.00 hours); 1368 arbitrary units in data set [1] (Time 0.67 hours); 1395 arbitrary units in data set [1] (Time 1.67 hours); 1145 arbitrary units in data set [1] (Time 2.67 hours); 1130 arbitrary units in data set [1] (Time 4.58 hours); 780 arbitrary units in data set [1] (Time 22.6 hours). Also, the “Pro-prodrug/beta-keto ester” value is 672 arbitrary units in data set [1] (Time 28.8 hours); 618 arbitrary units in data set [1] (Time 48.8 hours); 0 arbitrary units in data set [1] (Time 53.6 hours); 227 arbitrary units and 245 arbitrary units in data set [1] (Time 70.3 hours); 0 arbitrary units in data set [1] (Time 121.25 hours); 0 arbitrary units in data set [1] (Time 145.0 hours). For the same molecule, the “Pro-prodrug/beta-keto ester” value in data set [1] (Time 172.6 hours), in data set [1] (Time 197.3 hours), in data set [1] (Time 218.4 hours), in data set [1] (Time 293.7 hours) and in data set [1] (Time 335 hours) was 0 arbitrary units in each case. In data set [2], the “Area at retention time […] characteristic for detection of the beta-keto ester pro-prodrug” value is given as 632 arbitrary units.

`COc1ccc2cc(CCC(=O)CC(=O)O)ccc2c1` [Prodrug/beta-keto anion, 5-(6-methoxy-2-naphthyl)-beta-keto-pentanoate]: the “Prodrug/beta-keto anion (HPLC area)” value in data set [1] (Time 0.00 hours) is on record as 2055 arbitrary units; in data set [1] (Time 0.67 hours) it was 2313 arbitrary units; in data set [1] (Time 1.67 hours) it was 2383 arbitrary units; in data set [1] (Time 2.67 hours) it was 2266 arbitrary units; in data set [1] (Time 4.58 hours) it was 2204 arbitrary units; in data set [1] (Time 22.6 hours) it was 2079 arbitrary units. For the same molecule, the “Prodrug/beta-keto anion (HPLC area)” value is 2284 arbitrary units in data set [1] (Time 28.8 hours); 2312 arbitrary units in data set [1] (Time 48.8 hours); 2350 arbitrary units in data set [1] (Time 53.6 hours); 2087 arbitrary units and 2313 arbitrary units in data set [1] (Time 70.3 hours); 1915 arbitrary units and 1922 arbitrary units in data set [1] (Time 96.8 hours); 1620 arbitrary units in data set [1] (Time 121.25 hours). For the same molecule, the “Prodrug/beta-keto anion (HPLC area)” value in data set [1] (Time 145.0 hours) amounted to 1444 arbitrary units; in data set [1] (Time 172.6 hours), 1220 arbitrary units; in data set [1] (Time 197.3 hours), 1043 arbitrary units; in data set [1] (Time 218.4 hours), 943 arbitrary units; in data set [1] (Time 293.7 hours), 400 arbitrary units; in data set [1] (Time 335 hours) it was 398.5 arbitrary units.

Turning to benzoyl acetate [Benzoyl acetate ion], the half life result in data set [3] (pig blood pH 6.63, 37° C.) is reported as “about 3 hours”. The “period of sustained release of the acetophenone (model drug)” value in data set [3] (pig blood pH 6.63, 37° C.) is “at least 6 hours”. Besides, the “Benzoyl acetate ion concentration” value in data set [3] (Time at 37° C. 0.25) is 1.83 mM; in data set [3] (Time at 37° C. 1.33), 1.54 mM; in data set [3] (Time at 37° C. 2.58 (sampling time possibly exchanged with 4.75)), 1.17 mM; in data set [3] (Time at 37° C. 4.75 (sampling time possibly exchanged with 2.58)) it was 0.929 mM; in data set [3] (Time at 37° C. 5.58), 0.724 mM; in data set [3] (Time at 37° C. 6.58), 0.641 mM. The figures for the “Benzoyl acetate ion concentration” value in data set [3] (Time at 37° C. 22.58) and in data set [3] (Time at 37° C. −0.17 (analysed just before heating to 37° C.)) were 0.0356 mM and 2.30 mM, respectively.

For “5-(6-methoxy-2-naphthyl)-beta-keto-pentanoate [Beta keto salt prodrug]”, the half life in data set [4] (calcium salt form at 20° C., rule of thumb of doubling of reaction rate per 10° C.) is on record as roughly 270 days. Besides, in data set [4] (dry calcium salt after 17 days at 60° C., redissolved in water, HPLC), the “Obtained value (area units)” value is given as 1591 area units. The “Relative amount of calcium salt beta-keto prodrug/Nabumetone remaining after 17 days at 60° C.” value is on record as 54.7% in data set [4] and “more than 50%” in data set [4] (listed as calcium beta-keto salt prodrug of Nabumetone). Moreover, in data set [4] (recalculated for dilution), the “Expected value if no breakdown occured during storage and a 100% yield was obtained upon precipitation with calcium chloride” value is reported as 55938 area units.

In the case of `O=C(O)CC(=O)c1ccccc1` [benzoylacetic acid], the “weight % of initial amount” value in data set [5] (storage time 0 days) turned out to be 100 weight %; in data set [5] (storage time 9 days), 94.7 weight %; in data set [5] (storage time 23 days), 87.4 weight %; in data set [5] (storage time 27 days), 85.4 weight %; in data set [5] (storage time 29 days) it was 84.4 weight %; in data set [5] (storage time 35 days), 81.9 weight %. Besides, the “weight % of initial amount” value came out at 79.4 weight % in data set [5] (storage time 42 days) and 73.6 weight % in data set [5] (storage time 52 days). Moreover, the half-life in data set [5] (solid dry acid, typical indoor conditions) is roughly 100 days.

These data come from US20120065179A1, “PRODRUG COMPRISING BETA-KETO CARBOXYLIC ACID, BETA-KETO CARBOXYLIC ACID SALT OR BETA-KETO CARBOXYLIC ACID ESTER FOR DRUG DELIVERY” (YKI, Ytemiska Institutet AB, priority 2009, published 2012).
